Test in all cases: NCI-60 cell line screen, 48 h
In experiment [1] the test system is A498 renal.
For experiment [2], the system named is SNB-19 CNS.
Experiment [3] has as its system SK-MEL-28 melanoma.
The test system of experiment [4] is CAKI-1 renal.
Experiment [5] deals with UACC-257 melanoma.
Experiment [6] concerns OVCAR-3 ovarian.
For experiment [7], the system named is MDA-MB-435.
In experiment [8] the test system is NCI-H23 lung.
Experiment [9] concerns MOLT-4 leukemia.
For experiment [10], the system named is NCI-H522 lung.

Drawing on PubChem BioAssay (NCI), this text covers GI50 and TGI for 13 compounds.

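Growth conditions: 96-well plates. Treatment: test compound, 48 hours, 5 concentrations. Analysis: linear interpolation between bracketing concentrations; unreached endpoints set to highest concentration. GI50: concentration for 50% inhibition of growth. TGI is the concentration that stops growth completely.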

`CCN1Cc2nc3sc(C)c(C)c3c(=O)n2C=C1C`: the GI50 in experiment [1] was 20.3 µM; in experiment [2], 17.9 µM; in experiment [3], 6.65 µM; in experiment [4], 11.2 µM; in [5], 4.56 µM; in experiment [6], 2750 nM. Besides, the GI50 in experiment [7] was 6.48 µM; in [8], 7.26 µM; in experiment [9], 2.46 µM. The TGI was above 100 µM in [1]; above 100 µM in experiment [2]; 21.3 µM in [3]; 53.5 µM in experiment [4]; 17.6 µM in experiment [5]; 9.74 µM in experiment [6]. For the same compound, the TGI was 39.1 µM in [7], above 100 µM in [8] and 8.7 µM in experiment [9].
For the compound `COC1=CC(c2ccc[nH]2)=N/C1=C\c1[nH]c(C)c(C(=O)CCCCC(=O)Oc2ccc3c(c2)CCC2C3CC[C@]3(C)[C@@H](O)CC[C@@H]23)c1C` (stereo partly specified), the GI50 was above 100 µM in experiment [1]; 53.1 µM in experiment [2]; above 100 µM in [3]; 5.45 µM in experiment [4]; above 100 µM in [5]; above 100000 nM in [6]. Further, the GI50 is 5.47 µM in experiment [7], 39.9 µM in experiment [8] and 5.02 µM in [9]. The TGI in [1], in experiment [2], in [3], in experiment [4], in experiment [5] and in experiment [6] was above 100 µM each time. The TGI in [7], in experiment [8] and in experiment [9] was above 100 µM each time.
On to `COc1cc(/C=C2\C[C@H]3[C@@H]4CC=C5C[C@@H](O)CC[C@]5(C)[C@H]4CC[C@]3(C)[C@H]2O)ccc1OCCCn1ccnc1`, for which the GI50 was 12.4 µM in experiment [2]; 10.2 µM in experiment [3]; 22.3 µM in experiment [10]; 1.81 µM in experiment [4]; 6.3 µM in experiment [5]; 946 nM in [6]. Also, the GI50 was 3.52 µM in experiment [7], 9.31 µM in [8] and above 50 µM in experiment [9]. The TGI was above 50 µM in experiment [2]; above 50 µM in experiment [3]; above 50 µM in [10]; 7.86 µM in experiment [4]; 15.4 µM in [5]; 2.9 µM in experiment [6]. Besides, the TGI in experiment [7] is 12.6 µM; in [8] it was 40.8 µM; in [9] it was above 50 µM.
Take `NCC1OC(OC2C(CO)OC(OC3C(O)C(N)CC(N)C3OC3OC(CO)C(O)CC3N)C2O)C(N)C(O)C1OC1OC(CO)C(O)C(O)C1O` (stereo unspecified): the GI50 in [1], in experiment [2], in [3], in experiment [4], in experiment [5] and in experiment [6] was above 50 µg/mL each time. The GI50 in experiment [7], in experiment [8] and in experiment [9] was above 50 µg/mL in each case. The TGI in experiment [1], in experiment [2], in [3], in experiment [4], in experiment [5] and in experiment [6] was above 50 µg/mL each time. Besides, the TGI in experiment [7], in [8] and in experiment [9] was above 50 µg/mL throughout.
As to `O=C(COC(=O)c1cccc2c(=O)c3ccccc3[nH]c12)Nc1ccc(C(=O)O)cc1`, the TGI in experiment [1], in experiment [2], in experiment [3], in experiment [10], in [4] and in experiment [5] was above 100 µM each time. The TGI in [6], in experiment [8] and in experiment [9] was above 100 µM in each case.
As to `Cc1ccc(NC(=O)c2sc3nc4c(cc3c2N)C(=O)CCC4)cc1C`, the GI50 in experiment [1] was 0.198 µM; in experiment [2], 0.652 µM; in [3] it was 1.86 µM; in experiment [10], 0.276 µM; in [4], 0.661 µM; in experiment [5], 21.6 µM. In addition, the GI50 in experiment [6] was 345 nM; in experiment [8], 1.41 µM; in experiment [9] it was 6.41 µM. In addition, the TGI was 0.658 µM in experiment [1]; above 100 µM in [2]; above 100 µM in experiment [3]; 4.88 µM in [10]; above 100 µM in [4]; above 100 µM in experiment [5]. Moreover, the values for the TGI in [6], in experiment [8] and in experiment [9] were 1.6 µM, above 100 µM and 76.2 µM, respectively.
Turning to `Cc1cc(C)nc(NS(=O)(=O)c2ccc(Nc3c4ccc(Cl)cc4nc4c(C(=O)NCCN(C)C)cccc34)cc2)n1`, the TGI in experiment [1], in experiment [2], in experiment [3], in experiment [10], in experiment [4] and in experiment [5] was above 100 µM each time. Also, the TGI in experiment [6], in experiment [8] and in experiment [9] was above 100 µM in each case.
In the case of `NNC(=O)N/N=C1\C(=O)N(c2ccc(Cl)c(Cl)c2)C(=O)C(=O)C1c1nc2ccccc2s1` (stereo unspecified), the TGI in [1], in experiment [2], in experiment [3], in experiment [10], in experiment [4] and in experiment [5] was above 100 µM in each case. Besides, the TGI in experiment [6], in experiment [8] and in experiment [9] was above 100 µM in each case.
`O=S(=O)(/N=c1/scc(-c2ccccc2)n1-c1ccccc1)c1ccc(N2N=C3c4ccccc4CC3C2c2cccs2)cc1` (stereo unspecified): the GI50 in experiment [2] is above 100 µM; in experiment [3] it was above 100 µM; in experiment [10], 61.9 µM; in [4], 73 µM; in experiment [5], above 100 µM; in experiment [6], above 100000 nM. Further, the GI50 in experiment [7] was 38.7 µM; in experiment [8] it was 68 µM; in experiment [9] it was 19 µM. Also, the TGI in experiment [2], in [3], in experiment [10], in [4], in experiment [5] and in experiment [6] was above 100 µM throughout. The TGI in [7] was above 100 µM; in experiment [8], above 100 µM; in [9], 63.7 µM.
Regarding `Clc1ccc(OCc2nnc3n2N=C(c2ccc(Cl)cc2Cl)CS3)cc1`, the GI50 is 28.5 µM in [2]; 20.6 µM in [3]; 19.2 µM in experiment [10]; 25.9 µM in experiment [4]; 25 µM in experiment [5]; 17800 nM in [6]. For the same compound, the GI50 in [7] was 22.4 µM; in [8], 17.1 µM; in experiment [9], 32.4 µM. Also, the TGI in experiment [2] is above 100 µM; in experiment [3] it was 44.6 µM; in [10] it was 38.7 µM; in [4], 79.7 µM; in experiment [5], 50 µM; in experiment [6] it was 50.7 µM. The figures for the TGI in [7], in [8] and in experiment [9] were 59.8 µM, 37.9 µM and above 100 µM, respectively.
Turning to `c1ccc2cc(C[n+]3ccn(CCCCCCCCCCn4cc[n+](Cc5ccc6ccccc6c5)c4)c3)ccc2c1`, the GI50 is 0.0129 µM in [1]; 1.3 µM in [3]; 0.436 µM in experiment [10]; 1.37 µM in experiment [5]; 1950 nM in experiment [6]; 0.819 µM in experiment [7]. For the same compound, the GI50 in experiment [8] is 0.445 µM; in experiment [9], 1.36 µM. Moreover, the TGI was found to be 2.77 µM in experiment [1]; 5.66 µM in experiment [3]; 1.94 µM in experiment [10]; 5.58 µM in [5]; 7.09 µM in experiment [6]; 5.43 µM in experiment [7]. In addition, the TGI in experiment [8] was found to be 3.35 µM; in [9], 3 µM.
On to `COc1cc(-c2cc(-c3cc(OC)c(OC)c(OC)c3)nc3nc(N)[nH]c(=O)c23)ccc1Oc1ccnc2cc(Cl)ccc12`, for which the GI50 in experiment [1] was 16.3 µM; in experiment [2] it was 6.62 µM; in experiment [3], 4.75 µM; in experiment [10], 2.13 µM; in [4], 2.7 µM; in [5], 7.08 µM. Besides, the GI50 is 736 nM in experiment [6], 3.43 µM in experiment [8] and 2.78 µM in experiment [9]. Also, the TGI in experiment [1] is 86.4 µM; in [2] it was above 100 µM; in experiment [3], above 100 µM; in experiment [10] it was 15.5 µM; in [4], above 100 µM; in experiment [5] it was 60.8 µM. For the same compound, the results for the TGI in experiment [6], in experiment [8] and in experiment [9] were 13.6 µM, 24.9 µM and above 100 µM, respectively.
Take `COC(=O)C(Cc1nc2ccccc2nc1C)/C(=N\NC(N)=O)C(=O)Nc1cccc([N+](=O)[O-])c1` (stereo unspecified): the TGI in [1] was above 100 µM; in experiment [2], above 100 µM; in experiment [3], above 100 µM; in experiment [10] it was 27.3 µM; in experiment [4] it was above 100 µM; in [5] it was above 100 µM. Besides, the TGI in experiment [6], in [8] and in experiment [9] was above 100 µM throughout.
